Measurements reported in PubChem BioAssay AID651618 (Broad Institute, 2012).
Calls of active or inactive are those of the source. No rule for the calls is given here.

Legend:
[1] = replicating M. tuberculosis growth inhibition, dose response, counter-screen, dry powder, IC90 (AID 651618); conditions: M. tuberculosis replicating log phase, growth inhibition
[2] = test system: M. tuberculosis replicating log phase, growth inhibition; assay: as above

Structure (SMILES) | outcome [1] | IC90 [2]
c1ccc(CSc2nnc(-c3cnco3)o2)cc1 | inactive | –
c1ccc(CSc2nnc(-c3ccc(-c4ccccc4)cc3)o2)cc1 | inactive | –
Cc1ccc(CSc2nnc(-c3ccccc3)o2)cc1 | inactive | –
FC(F)(F)c1ccc(-c2nnc(SCc3ccccc3)o2)cc1 | inactive | –
CS(=O)(=O)c1cccc(-c2nnc(SCc3ccccc3)o2)c1 | inactive | –
c1ccc(CSc2nnc(-c3cscn3)o2)cc1 | inactive | –
Cc1cccc(-c2nnc(SCc3ccccc3)o2)c1 | inactive | –
Clc1ccc(-c2nnc(SCc3ccccc3)o2)cc1 | inactive | –
FC(F)(F)Oc1ccccc1-c1nnc(SCc2ccccc2)o1 | inactive | –
CS(=O)(=O)c1cccc(CSc2nnc(-c3ccccc3)o2)c1 | inactive | –
Clc1ccccc1CSc1nnc(-c2ccccc2)o1 | inactive | –
Fc1ccc(CSc2nnc(-c3ccccc3)o2)cc1 | inactive | –
Fc1ccccc1CSc1nnc(-c2ccccc2)o1 | – | 250 µM
COc1ccccc1CSc1nnc(-c2ccccc2)o1 | inactive | –
c1ccc(CSc2nnc(-c3ccccc3)s2)cc1 | inactive | –
c1ccc(CSc2nnc(-c3ccncc3)o2)cc1 | inactive | –
c1ccc(CSc2nnc(-c3cccs3)o2)cc1 | – | 250 µM
FC(F)(F)Oc1ccc(CSc2nnc(-c3ccccc3)o2)cc1 | inactive | –
N#Cc1cccc(CSc2nnc(-c3ccccc3)o2)c1 | inactive | –
Cc1nnc(SCc2ccccc2)o1 | inactive | –
COc1cccc(-c2nnc(SCc3ccccc3)o2)c1 | – | 250 µM
FC(F)(F)c1ccc(CSc2nnc(-c3ccccc3)o2)cc1 | inactive | –

Structure (SMILES) | outcome [1] | IC90 [2]
FC(F)(F)c1ccccc1-c1nnc(SCc2ccccc2)o1 | inactive | –
c1ccc(CSc2nnc(-c3ccccc3)o2)cc1 | – | 125 µM
c1ccc(CSc2nnc(Cc3ccccc3)o2)cc1 | inactive | –
c1ccc(-c2nnc(SCCN3CCN(c4ccccc4)CC3)o2)cc1 | – | 125 µM
FC(F)(F)c1cccc(CSc2nnc(-c3ccccc3)o2)c1 | – | 250 µM
Clc1ccccc1-c1nnc(SCc2ccccc2)o1 | inactive | –
CS(=O)(=O)c1ccccc1-c1nnc(SCc2ccccc2)o1 | inactive | –
CS(=O)(=O)c1ccc(-c2nnc(SCc3ccccc3)o2)cc1 | inactive | –
Clc1cccc(CSc2nnc(-c3ccccc3)o2)c1 | inactive | –
N#Cc1ccccc1CSc1nnc(-c2ccccc2)o1 | inactive | –
COc1ccccc1-c1nnc(SCc2ccccc2)o1 | – | 250 µM
c1ccc(-c2nnc(SCc3cscn3)o2)cc1 | inactive | –
FC(F)(F)Oc1ccc(-c2nnc(SCc3ccccc3)o2)cc1 | inactive | –
FC(F)(F)Oc1ccccc1CSc1nnc(-c2ccccc2)o1 | inactive | –
c1ccc(CSc2nnc(C3CCCCC3)o2)cc1 | – | 250 µM
N#Cc1ccc(CSc2nnc(-c3ccccc3)o2)cc1 | inactive | –
c1ccc(CSc2nnc(C3CCCC3)o2)cc1 | – | 250 µM
c1ccc(CSc2nnc(-c3cc4ccccc4o3)o2)cc1 | inactive | –
FC1(F)CN(CCSc2nnc(-c3ccccc3)o2)C1 | inactive | –
Clc1cccc(-c2nnc(SCc3ccccc3)o2)c1 | inactive | –
c1ccc(-c2nnc(SCc3ncco3)o2)cc1 | inactive | –
COCCOCCSc1nnc(-c2ccccc2)o1 | – | 250 µM

Structure (SMILES) | outcome [1] | IC90 [2]
CS(=O)(=O)c1ccc(CSc2nnc(-c3ccccc3)o2)cc1 | inactive | –
c1ccc(-c2nnc(SCCN3CCCC3)o2)cc1 | inactive | –
c1ccc(-c2ccc(CSc3nnc(-c4ccccc4)o3)cc2)cc1 | inactive | –
c1ccc(CCc2nnc(SCc3ccccc3)o2)cc1 | – | 250 µM
c1ccc(CNCCSc2nnc(-c3ccccc3)o2)cc1 | inactive | –
c1ccc(CSc2nnc(-c3ccccn3)o2)cc1 | inactive | –
O=C(Cc1ccccc1)c1nnc(-c2ccccc2)o1 | inactive | –
Clc1ccc(CSc2nnc(-c3ccccc3)o2)cc1 | inactive | –
CC1(O)CN(CCSc2nnc(-c3ccccc3)o2)C1 | inactive | –
Cc1ccccc1-c1nnc(SCc2ccccc2)o1 | inactive | –
COc1ccc(-c2nnc(SCc3ccc(Cl)cc3)o2)cc1 | inactive | –
N#Cc1cccc(-c2nnc(SCc3ccccc3)o2)c1 | inactive | –
c1ccc(CSc2nnc(-c3ccco3)o2)cc1 | inactive | –
c1ccc(CNc2nnc(-c3ccccc3)o2)cc1 | inactive | –
CC(C)c1nnc(SCc2ccccc2)o1 | – | 250 µM
FC(F)(F)c1ccccc1CSc1nnc(-c2ccccc2)o1 | inactive | –
FC(F)(F)CNCCSc1nnc(-c2ccccc2)o1 | inactive | –
CS(=O)(=O)c1ccccc1CSc1nnc(-c2ccccc2)o1 | inactive | –
COc1ccc(-c2nnc(SCc3ccccc3)o2)cc1 | inactive | –
Cc1cccc(CSc2nnc(-c3ccccc3)o2)c1 | – | 250 µM
O=C(Cc1ccccc1)C(C(=O)c1nnc(-c2ccccc2)o1)c1ccccc1 (stereo unspecified) | inactive | –
c1ccc(-c2nnc(SC(c3ccccc3)c3ccccc3)o2)cc1 | inactive | –

Structure (SMILES) | outcome [1] | IC90 [2]
Cc1ccc(-c2nnc(SCc3ccccc3)o2)cc1 | – | 125 µM
c1ccc(CSc2nnc(-c3cccnc3)o2)cc1 | – | 250 µM
c1ccc(-c2nnc(SCCN3CCOCC3)o2)cc1 | inactive | –
Fc1ccccc1-c1nnc(SCc2ccccc2)o1 | inactive | –
CN(C)CCSc1nnc(-c2ccccc2)o1 | inactive | –
Cc1ccccc1CSc1nnc(-c2ccccc2)o1 | inactive | –
COc1ccc(CSc2nnc(-c3ccccc3)o2)cc1 | inactive | –
Fc1cccc(CSc2nnc(-c3ccccc3)o2)c1 | – | 250 µM
Brc1ccc(CSc2nnc(-c3ccccc3)o2)cc1 | inactive | –
c1ccc(CSc2ncc(-c3ccccc3)o2)cc1 | inactive | –
COc1cccc(CSc2nnc(-c3ccccc3)o2)c1 | – | 250 µM
FC1(F)CCN(CCSc2nnc(-c3ccccc3)o2)CC1 | – | 250 µM
CN(Cc1ccccc1)c1nnc(-c2ccccc2)o1 | inactive | –
FC(F)(F)Oc1cccc(-c2nnc(SCc3ccccc3)o2)c1 | – | 250 µM
Fc1cccc(-c2nnc(SCc3ccccc3)o2)c1 | inactive | –
c1ccc(CCc2nnc(-c3ccccc3)o2)cc1 | inactive | –
FC(F)(F)c1cccc(-c2nnc(SCc3ccccc3)o2)c1 | inactive | –
FC(F)(F)Oc1cccc(CSc2nnc(-c3ccccc3)o2)c1 | inactive | –
N#Cc1ccc(-c2nnc(SCc3ccccc3)o2)cc1 | inactive | –
Fc1ccc(-c2nnc(SCc3ccccc3)o2)cc1 | inactive | –
